Experimental findings from patent US20140031217A1, “HERBICIDAL COMPOSITIONS COMPRISING 4-AMINO-3-CHLORO-5-FLUORO-6-(4-CHLORO-2-FLUORO-3-METHOXYPHENYL)PYRIDINE-2-CARBOXYLIC ACID OR A DERIVATIVE THEREOF AND AUXIN TRANSPORT INHIBITORS” (DOW AGROSCIENCES LLC, priority 2012, published 2014) are described below.

Molecules are shown by their SMILES.

Test [1] concerns ECHCO. The test is described as follows: Postemergence foliar-applied greenhouse weed control, ECHCO. The format is in vivo, Echinochloa colona (L.) Link. The text has this:
Seeds or nutlets of the desired test plant species were planted in a soil matrix prepared by mixing a loam or sandy loam soil (e.g., 28.6 percent silt, 18.8 percent clay, and 52.6 percent sand, with a pH of about 5.8 and an organic matter content of about 1.8 percent) and calcareous grit in an 80 to 20 ratio. The soil matrix was contained in plastic pots with a volume of 1 quart and a surface area of 83.6 square centimeters (cm^2). When required to ensure good germination and healthy plants, a fungicide treatment and/or other chemical or physical treatment was applied. The plants were grown for 8-22 days in a greenhouse with an approximate 14 h photoperiod which was maintained at about 29° C. during the day and 26° C. during the night. Nutrients (Peters Excel® 15-5-15 5-Ca 2-Mg and iron chelate) were applied in the irrigation solution as needed and water was added on a regular basis. Supplemental lighting was provided with overhead metal halide 1000-Watt lamps as necessary. The plants were employed for testing when they reached the first through fourth true leaf stage.
Treatments consisted of the acid or esters of 4-amino-3-chloro-5-fluoro-6-(4-chloro-2-fluoro-3-methoxy-phenyl) pyridine-2-carboxylic acid (Compound A), each formulated as an SC (suspension concentrate), and various herbicidal components alone and in combination. Forms of compound A were applied on an acid equivalent basis.
Other herbicidal components were applied on an active ingredient basis and included auxin transport inhibiting (ATI) herbicides chlorflurenol (technical material), chlorflurenol-methyl (technical material), diflufenzopyr (technical material), diflufenzopyr sodium (technical material), flurenol-methyl (technical material) and naptalam (technical material).
Treatment requirements were calculated based upon the rates being tested, the concentration of active ingredient or acid equivalent in the formulation, and a 12 mL application volume at a rate of 187 L/ha.
For treatments comprised of formulated and technical compounds, weighed amounts of the technical materials were placed individually in 25 mL glass vials and dissolved in a volume of 97:3 v/v acetone/DMSO to obtain 12× stock solutions, and measured amounts of the formulated compounds were placed individually in 25 mL glass vials and diluted in a volume of 1.5% (v/v) crop oil concentrate or water to obtain 12× stock solutions. […] Application solutions were prepared by adding an appropriate amount of each stock solution (e.g., 1 mL) and diluted to the appropriate final concentrations with the addition of an appropriate amount of an aqueous mixture of 1.5% (v/v) crop oil concentrate so that the final spray solutions contained 1.25% (v/v) crop oil concentrate. When required, additional water and/or 97:3 v/v acetone/DMSO was added to individual application solutions so that the final acetone and DMSO concentrations of the application solutions being compared were 8.1% and 0.25%, respectively.
All stock solutions and applications solutions were visually inspected for compound compatibility prior to application. Spray solutions were applied to the plant material with an overhead Mandel track sprayer equipped with an 8002E nozzle calibrated to deliver 187 L/ha over an application area of 0.503 m^2 at a spray height of 18 to 20 inches (46 to 50 cm) above average plant canopy height. Control plants were sprayed in the same manner with the solvent blank.
The treated plants and control plants were placed in a greenhouse as described above and watered by sub-irrigation to prevent wash-off of the test compounds. After approximately 3 weeks, the condition of the test plants as compared with that of the untreated plants was determined visually and scored on a scale of 0 to 100 percent where 0 corresponds to no injury or growth inhibition and 100 corresponds to complete kill. […]

In test [2] the test system is ECHOR. The experiment in a line: In-water applied (paddy) greenhouse weed control, ECHOR. The class given is in vivo, Echinochloa oryzoides (Ard.) Fritsch. As to the method:
Weed seeds or nutlets of the desired test plant species were planted in puddled soil (mud) prepared by mixing a shredded, non-sterilized mineral soil (50.5 percent silt, 25.5 percent clay, and 24 percent sand, with a pH of about 7.6 and an organic matter content of about 2.9 percent) and water at a 1:1 volumetric ratio. The prepared mud was dispensed in 365 mL aliquots into 16-ounce (oz.) non-perforated plastic pots with a surface area of 86.59 square centimeters (cm^2) leaving a headspace of 3 centimeters (cm) in each pot. Mud was allowed to dry overnight prior to planting or transplanting. Rice seeds were planted in Sun Gro MetroMix® 306 planting mixture, which typically has a pH of 6.0 to 6.8 and an organic matter content of about 30 percent, in plastic plug trays. Seedlings at the second or third leaf stage of growth were transplanted into 840 mL of mud contained in 32-oz. non-perforated plastic pots with a surface area of 86.59 cm^2 4 days prior to herbicide application. The paddy was created by filling the headspace of the pots with 2.5 to 3 cm of water. When required to ensure good germination and healthy plants, a fungicide treatment and/or other chemical or physical treatment was applied. The plants were grown for 4-22 days in a greenhouse with an approximate 14 h photoperiod which was maintained at about 29′C during the day and 26° C. during the night. Nutrients were added as Osmocote® (19:6:12, N:P:K+minor nutrients) at 2 g per 16-oz. pot and 4 g per 960-mL 32-oz. pot. Water was added on a regular basis to maintain the paddy flood, and supplemental lighting was provided with overhead metal halide 1000-Watt lamps as necessary. The plants were employed for testing when they reached the second or third true leaf stage.
Treatments consisted of the acid or esters of 4-amino-3-chloro-5-fluoro-6-(4-chloro-2-fluoro-3-methoxy-phenyl)pyridine-2-carboxylic acid (compound A) each formulated as an SC and various herbicidal components alone and in combination. Forms of compound A were applied on an acid equivalent basis.
Other herbicidal components were applied on an active ingredient basis and included auxin transport inhibiting (ATI) herbicides chlorflurenol-methyl (technical material), chlorflurenol (technical material), diflufenzopyr (technical material), dilfufenzopyr sodium (technical material), flurenol-methyl (technical material,) and naptalam (technical material).
Treatment requirements for each compound or herbicidal component were calculated based upon the rates being tested, the concentration of active ingredient or acid equivalent in the formulation, an application volume of 2 mL per component per pot, and an application area of 86.59 cm^2 per pot.
For formulated compounds, a measured amount was placed in an individual 100 or 200 mL glass vial and was dissolved in a volume of 1.25% (v/v) Agri-Dex® crop oil concentrate to obtain application solutions.
For technical grade compounds, a weighed amount was placed in an individual 100 to 200 mL glass vial and was dissolved in a volume of acetone to obtain concentrated stock solutions. […] The concentrated stock solutions obtained were diluted with an equivalent volume of an aqueous mixture containing 2.5% (v/v) crop oil concentrate so that the final application solutions contained 1.25% (v/v) crop oil concentrate.
Applications were made by injecting with a pipetter appropriate amounts of the application solutions, individually and sequentially, into the aqueous layer of the paddy. Control plants were treated in the same manner with the solvent blank. Applications were made so that all treated plant material received the same concentrations of acetone and crop oil concentrate.
The treated plants and control plants were placed in a greenhouse as described above and water was added as needed to maintain a paddy flood. […]

As to `COc1c(Cl)ccc(-c2nc(C(=O)O)c(Cl)c(N)c2F)c1F` [Compound A Acid, 4-amino-3-chloro-6-(4-chloro-2-fluoro-3-methoxyphenyl)-5-fluoropyridine-2-carboxylic acid], the “Visual Weed Control (%) Obs” value worked out at 40% in test [1] (20 DAA, 4.38 gae/ha); 60% in test [1] (21 DAA, 4.38 gae/ha); 10% in test [2] (20 DAA, 8.75 gae/ha); 15% in test [2] (20 DAA, 17.5 gae/ha); 25% in test [2] (20 DAA, 35 gae/ha); 0% in test [2] (22 DAA, 8.75 gae/ha). Moreover, the “Visual Weed Control (%) Obs” value in test [2] (22 DAA, 17.5 gae/ha) is listed as 20%; in test [2] (22 DAA, 35 gae/ha) it was 20%.
`COc1c(Cl)ccc(-c2nc(C(=O)OCc3ccccc3)c(Cl)c(N)c2F)c1F` [Compound A Benzyl Ester]: the “Visual Weed Control (%) Obs” value was determined as 60% in test [1] (20 DAA, 4.38 gae/ha); 80% in test [1] (20 DAA, 8.75 gae/ha); 25% in test [2] (19 DAA, 32 gae/ha); 10% in test [2] (20 DAA, 4.38 gae/ha); 15% in test [2] (20 DAA, 8.75 gae/ha).
